Laboratory results as given in ChEMBL document CHEMBL4393657, “Tetrazole hybrids and their antifungal activities” (2019).
≈ marks a conversion by molar mass, not a printed value.

Experiments:
Format in all cases: functional
Candida albicans [1] = assay: Antifungal activity against Candida albicans MTCC183 assessed as reduction in fungal cell growth incubated for 24 to 48 hrs
Aspergillus niger [2] = assay: Antifungal activity against Aspergillus niger MTCC281 assessed as reduction in fungal cell growth incubated for 24 to 48 hrs
Candida albicans [3] = assay: Antifungal activity against Candida albicans assessed as reduction in fungal cell growth incubated for 24 hrs by broth microdilution method
Staphylococcus aureus [4] = assay: Potency index, ratio for MIC of methicillin to MIC of compound for […] incubated for 24 hrs by broth microdilution method
Candida albicans [5] = assay: Antifungal activity against Candida albicans assessed as inhibition zone at 125 ug/ml by disk diffusion method; settings: read-out: IZ
Aspergillus niger [6] = assay: Antifungal activity against Aspergillus niger assessed as inhibition zone at 20 ug/ml by disk diffusion method; settings: read-out: IZ
Nakaseomyces glabratus [7] = assay: Antifungal activity against Candida glabrata assessed as reduction in fungal cell growth incubated for 24 hrs by broth microdilution method
Candida albicans [8] = assay: Antifungal activity against Candida albicans assessed as inhibition zone at 20 ug/ml by disk diffusion method; settings: read-out: IZ
Candida albicans [9] = assay: Antifungal activity against Candida albicans TA
Aspergillus fumigatus [10] = assay: Antifungal activity against Aspergillus fumigatus assessed as inhibition zone at 20 ug/ml by disk diffusion method; settings: read-out: IZ
Candida albicans [11] = assay: Antifungal activity against Candida albicans assessed as inhibition zone at 100 ug/ml; settings: read-out: IZ
Candida albicans [12] = assay: Antifungal activity against Candida albicans assessed as reduction in fungal cell growth incubated for 24 and 72 hrs by cup plate method
Candida parapsilosis [13] = assay: Antifungal activity against Candida parapsilosis ATCC 22019 assessed as reduction in fungal cell growth incubated for 48 hrs by broth microdilution method; settings: Lodderomyces parapsilosis, ATCC 22019, 48 h
Aspergillus niger [14] = assay: Antifungal activity against Aspergillus niger assessed as inhibition zone at 100 ug/ml; settings: read-out: IZ
Candida albicans [15] = assay: Antifungal activity against Candida albicans assessed as reduction in fungal cell growth incubated for 48 hrs by broth microdilution susceptibility method
Candida tropicalis [16] = assay: Antifungal activity against Candida tropicalis assessed as reduction in fungal cell growth incubated for 24 hrs by broth microdilution method
Candida albicans [17] = assay: Antifungal activity against Candida albicans V-01-191A-261 assessed as reduction in fungal cell growth incubated for 48 hrs by broth microdilution method; settings: V-01-191A-261, 48 h
Pichia kudriavzevii [18] = assay: Antifungal activity against Candida krusei assessed as reduction in fungal cell growth incubated for 24 hrs by broth microdilution method
Aspergillus niger [19] = assay: Antifungal activity against Aspergillus niger assessed as reduction in fungal cell growth incubated for 72 hrs by broth microdilution method
Nakaseomyces glabratus [20] = assay: Antifungal activity against Candida glabrata assessed as reduction in fungal cell growth incubated for 48 hrs by broth microdilution method
Candida albicans [21] = assay: In vivo antifungal activity against Candida albicans TA infected in CDF-1 mouse dosed orally assessed as survival of mouse; settings: po
Aspergillus fumigatus [22] = assay: Antifungal activity against Aspergillus fumigatus assessed as reduction in fungal cell growth incubated for 48 hrs by broth microdilution method
Pichia kudriavzevii [23] = assay: Antifungal activity against Candida krusei assessed as reduction in fungal cell growth incubated for 48 hrs by broth microdilution method
Aspergillus flavus [24] = assay: Antifungal activity against Aspergillus flavus assessed as inhibition zone at 20 ug/ml by disk diffusion method; settings: read-out: IZ
Candida tropicalis [25] = assay: Antifungal activity against Candida tropicalis assessed as reduction in fungal cell growth incubated for 48 hrs by broth microdilution method
Aspergillus flavus [26] = assay: Antifungal activity against Aspergillus flavus assessed as reduction in fungal cell growth incubated for 24 and 72 hrs by cup plate method
Cryptococcus neoformans [27] = assay: Antifungal activity against Cryptococcus neoformans LA314 assessed as reduction in fungal cell growth incubated for 48 hrs by broth microdilution method; settings: LA314, 48 h
Aspergillus niger [28] = assay: Antifungal activity against Aspergillus niger assessed as reduction in fungal cell growth incubated for 48 hrs by broth microdilution method
Aspergillus niger [29] = assay: Antifungal activity against Aspergillus niger assessed as reduction in fungal cell growth incubated for 48 hrs by broth microdilution susceptibility method
Aspergillus fumigatus [30] = assay: Potency index, ratio for MIC of fluconazole to MIC of compound for antifungal activity against Aspergillus fumigatus
Aspergillus niger [31] = assay: Potency index, ratio for MIC of fluconazole to MIC of compound for antifungal activity against Aspergillus niger
Staphylococcus aureus [32] = assay: Antifungal activity against methicillin-resistant Staphylococcus aureus after 24 hrs by broth microdilution assay
[33] = Antifungal activity against Pellicularia sasakii assessed as inhibition of growth at 50 ug/ml; settings: read-out: GI
Mycosphaerella arachidis = assay: Antifungal activity against Cercospora arachidicola assessed as inhibition of growth at 50 ug/ml; settings: read-out: GI
Botrytis cinerea = assay: Antifungal activity against Botrytis cinerea assessed as inhibition of growth at 50 ug/ml; settings: read-out: GI
Phytophthora infestans = assay: Antifungal activity against Phytophthora infestans assessed as inhibition of growth at 50 ug/ml; settings: read-out: GI
Sclerotinia sclerotiorum = assay: Antifungal activity against Sclerotinia sclerotiorum assessed as inhibition of growth at 50 ug/ml; settings: read-out: GI
Alternaria solani = assay: Antifungal activity against Alternaria solani assessed as inhibition of growth at 50 ug/ml; settings: read-out: GI
Fusarium graminearum = assay: Antifungal activity against Gibberella zeae assessed as inhibition of growth at 50 ug/ml; settings: read-out: GI
[34] = tested on: Botryosphaeria berengeriana; assay: Antifungal activity against Physalospora pyricola assessed as inhibition of growth at 50 ug/ml; settings: read-out: GI
Ceratobasidium cereale = assay: Antifungal activity against Rhizoctonia cerealis assessed as inhibition of growth at 50 ug/ml; settings: read-out: GI
Aspergillus flavus [35] = assay: Antifungal activity against Aspergillus flavus assessed as inhibition zone at 1 ug/ml incubated for 24 to 72 hrs by disk diffusion method
Candida albicans [36] = assay: Antifungal activity against Candida albicans MTCC 227 assessed as reduction in fungal cell growth incubated for 24 and 48 hrs by broth microdilution method
Trichoderma harzianum = assay: Antifungal activity against Trichoderma harzianum assessed as inhibition zone at 1 ug/ml incubated for 24 to 72 hrs by disk diffusion method
Aspergillus niger [37] = assay: Antifungal activity against Aspergillus niger assessed as inhibition zone at 1 ug/ml incubated for 24 to 72 hrs by disk diffusion method
Aspergillus fumigatus [38] = assay: Antifungal activity against Aspergillus fumigatus assessed as inhibition zone at 1 ug/ml incubated for 24 to 72 hrs by disk diffusion method
Candida albicans [39] = assay: Antifungal activity against Candida albicans ATCC 885653 assessed as inhibition zone at 100 ug/ml incubated for 48 to 72 hrs by agar-diffusion method
Nakaseomyces glabratus [40] = assay: Potency index, ratio for MIC of fluconazole to MIC of compound for antifungal activity against Candida glabrata assessed as reduction in fungal cell growth incubated for 48 hrs by broth microdilution method
Candida tropicalis [41] = assay: Potency index, ratio for MIC of fluconazole to MIC of compound for Antifungal activity against Candida tropicalis assessed as reduction in fungal cell growth incubated for 48 hrs by broth microdilution method
Candida parapsilosis [42] = assay: Potency index, ratio for MIC of fluconazole to MIC of compound for Antifungal activity against Candida parapsilosis ATCC 22019 assessed as reduction in fungal cell growth incubated for 48 hrs by broth microdilution method
Candida albicans [43] = assay: Antifungal activity against Candida albicans assessed as reduction in fungal cell growth incubated for 48 hrs by broth microdilution method
Cryptococcus neoformans [44] = assay: Potency index, ratio for MIC of fluconazole to MIC of compound for antifungal activity against Cryptococcus neoformans LA314 assessed as reduction in fungal cell growth incubated for 48 hrs by broth microdilution method
Candida albicans [45] = assay: Potency index, ratio for MIC of fluconazole to MIC of compound for antifungal activity against Candida albicans V-01-191A-261 assessed as reduction in fungal cell growth incubated for 48 hrs by broth microdilution method

c1cnc(-c2nn3nnnc3o2)cn1
MIC (Candida albicans [1]): 50 µg/mL (≈ 264 µM)
MIC (Aspergillus niger [2]): 100 µg/mL (≈ 529 µM)

FC(F)(F)c1cc(-c2ccc(I)cc2)nc2nnnn12
MIC (Candida albicans [3]): 62.5 µg/mL (≈ 160 µM)
Ratio (Staphylococcus aureus [4]): >64

OC(Cn1cncn1)(Cn1cncn1)c1ccc(F)cc1F [FLUCONAZOLE]
zone of inhibition at 125 µg/mL (Candida albicans [5]): 14 mm
zone of inhibition at 20 µg/mL (Aspergillus niger [6]): 19 to 22 mm
MIC (Nakaseomyces glabratus [7]): 1 to 4 µg/mL (≈ 3.27 to 13.1 µM)
zone of inhibition at 20 µg/mL (Candida albicans [8]): 19 to 22 mm
MIC (Candida albicans [9]): 100 µg/mL (≈ 327 µM)
zone of inhibition at 20 µg/mL (Aspergillus fumigatus [10]): 19 to 22 mm
zone of inhibition at 100 µg/mL (Candida albicans [11]): 22 to 25 mm
MIC (Candida albicans [12]): 25 µg/mL (≈ 81.6 µM)
MIC (Candida parapsilosis [13]): 2 to 8 µg/mL (≈ 6.53 to 26.1 µM)
zone of inhibition at 100 µg/mL (Aspergillus niger [14]): 22 to 25 mm
MIC (Candida albicans [15]): 6.25 µg/mL (≈ 20.4 µM)
MIC (Candida tropicalis [16]): 1 to 4 µg/mL (≈ 3.27 to 13.1 µM)
MIC (Candida albicans [17]): 2 to 8 µg/mL (≈ 6.53 to 26.1 µM)
MIC (Pichia kudriavzevii [18]): 1 to 4 µg/mL (≈ 3.27 to 13.1 µM)
MIC (Aspergillus niger [19]): 2 to 8 µg/mL (≈ 6.53 to 26.1 µM)
MIC (Nakaseomyces glabratus [20]): 2 to 8 µg/mL (≈ 6.53 to 26.1 µM)
ED50 (Candida albicans [21]): 0.29 to 0.35 mg/kg
MIC (Candida albicans [3]): 1 to 4 µg/mL (≈ 3.27 to 13.1 µM)
MIC (Aspergillus fumigatus [22]): 2.5 µg/mL (≈ 8.16 µM)
MIC (Pichia kudriavzevii [23]): 2 to 8 µg/mL (≈ 6.53 to 26.1 µM)
zone of inhibition at 20 µg/mL (Aspergillus flavus [24]): 19 to 22 mm
MIC (Candida tropicalis [25]): 2 to 8 µg/mL (≈ 6.53 to 26.1 µM)
MIC (Aspergillus flavus [26]): 25 µg/mL (≈ 81.6 µM)
MIC (Cryptococcus neoformans [27]): 2 to 8 µg/mL (≈ 6.53 to 26.1 µM)
MIC (Aspergillus niger [28]): 0.625 to 6.25 µg/mL (≈ 2.04 to 20.4 µM)
MIC (Aspergillus niger [29]): 6.25 µg/mL (≈ 20.4 µM)

O=C(/C=C/c1ccc(OC(F)F)c(O)c1)c1ccc(-n2cnnn2)cc1
Ratio (Aspergillus fumigatus [30]): >4
Ratio (Aspergillus niger [31]): >4

COc1cccc(OC)c1C(=O)N[C@@H]1C(=O)N2[C@@H]1SC(C)(C)[C@@H]2C(=O)O [METHICILLIN]
MIC (Staphylococcus aureus [32]): > 250 µg/mL

Cc1snnc1C(Nc1ccc([N+](=O)[O-])cc1)c1nnnn1C1CCCCC1 (stereo unspecified)
inhibition of growth at 50 µg/mL [33]: 20 to 65.4%
inhibition of growth at 50 µg/mL (Mycosphaerella arachidis): 20 to 65.4%
inhibition of growth at 50 µg/mL (Botrytis cinerea): 20 to 65.4%
inhibition of growth at 50 µg/mL (Phytophthora infestans): 20 to 65.4%
inhibition of growth at 50 µg/mL (Sclerotinia sclerotiorum): 20 to 65.4%
inhibition of growth at 50 µg/mL (Alternaria solani): 20 to 65.4%
inhibition of growth at 50 µg/mL (Fusarium graminearum): 20 to 65.4%
inhibition of growth at 50 µg/mL [34]: 20 to 65.4%
inhibition of growth at 50 µg/mL (Ceratobasidium cereale): 20 to 65.4%

NYSTATIN
inhibition zone (IZ) (Aspergillus flavus [35]): 2.4 to 2.8 mm
MIC (Candida albicans [36]): 100 µg/mL
inhibition zone (IZ) (Trichoderma harzianum): 2.4 to 2.8 mm
inhibition zone (IZ) (Aspergillus niger [37]): 2.4 to 2.8 mm
inhibition zone (IZ) (Aspergillus fumigatus [38]): 2.4 to 2.8 mm
inhibition zone (IZ) (Candida albicans [39]): 21 mm

C[C@H](n1nnnc1CCN1CCN(c2cccc(C(F)(F)F)c2)CC1)[C@](O)(Cn1cncn1)c1ccc(F)cc1F
Ratio (Nakaseomyces glabratus [40]): 16
Ratio (Candida tropicalis [41]): 16
MIC (Candida parapsilosis [13]): 0.12 to 1 µg/mL (≈ 0.208 to 1.73 µM)
Ratio (Candida parapsilosis [42]): 16
MIC (Candida albicans [43]): 0.12 to 16 µg/mL (≈ 0.208 to 27.7 µM)
MIC (Aspergillus niger [19]): 0.12 to 1 µg/mL (≈ 0.208 to 1.73 µM)
MIC (Nakaseomyces glabratus [20]): 0.12 to 1 µg/mL (≈ 0.208 to 1.73 µM)
MIC (Pichia kudriavzevii [23]): 0.12 to 1 µg/mL (≈ 0.208 to 1.73 µM)
MIC (Candida tropicalis [25]): 0.12 to 1 µg/mL (≈ 0.208 to 1.73 µM)
MIC (Cryptococcus neoformans [27]): 0.12 to 1 µg/mL (≈ 0.208 to 1.73 µM)
Ratio (Aspergillus niger [31]): 16
Ratio (Cryptococcus neoformans [44]): 16
Ratio (Candida albicans [45]): 16
